These molecules were tested against T1, CBL-B (Homo sapiens, UniProt Q13191) (assay: CBL-B TR-FRET IC50 screening (E1/E2 ubiquitination, Biotin-Ubiquitin, Anti GST-Tb donor / Streptavidin-d2 acceptor)). Settings: CBL-B 10 nM final; 11-point titration from 100 uM; binned A-F; read-out: CBL-B TR-FRET activity IC50.
T1 construct: GST
Format: biochemical

T1 sequence (Q13191 whole entry): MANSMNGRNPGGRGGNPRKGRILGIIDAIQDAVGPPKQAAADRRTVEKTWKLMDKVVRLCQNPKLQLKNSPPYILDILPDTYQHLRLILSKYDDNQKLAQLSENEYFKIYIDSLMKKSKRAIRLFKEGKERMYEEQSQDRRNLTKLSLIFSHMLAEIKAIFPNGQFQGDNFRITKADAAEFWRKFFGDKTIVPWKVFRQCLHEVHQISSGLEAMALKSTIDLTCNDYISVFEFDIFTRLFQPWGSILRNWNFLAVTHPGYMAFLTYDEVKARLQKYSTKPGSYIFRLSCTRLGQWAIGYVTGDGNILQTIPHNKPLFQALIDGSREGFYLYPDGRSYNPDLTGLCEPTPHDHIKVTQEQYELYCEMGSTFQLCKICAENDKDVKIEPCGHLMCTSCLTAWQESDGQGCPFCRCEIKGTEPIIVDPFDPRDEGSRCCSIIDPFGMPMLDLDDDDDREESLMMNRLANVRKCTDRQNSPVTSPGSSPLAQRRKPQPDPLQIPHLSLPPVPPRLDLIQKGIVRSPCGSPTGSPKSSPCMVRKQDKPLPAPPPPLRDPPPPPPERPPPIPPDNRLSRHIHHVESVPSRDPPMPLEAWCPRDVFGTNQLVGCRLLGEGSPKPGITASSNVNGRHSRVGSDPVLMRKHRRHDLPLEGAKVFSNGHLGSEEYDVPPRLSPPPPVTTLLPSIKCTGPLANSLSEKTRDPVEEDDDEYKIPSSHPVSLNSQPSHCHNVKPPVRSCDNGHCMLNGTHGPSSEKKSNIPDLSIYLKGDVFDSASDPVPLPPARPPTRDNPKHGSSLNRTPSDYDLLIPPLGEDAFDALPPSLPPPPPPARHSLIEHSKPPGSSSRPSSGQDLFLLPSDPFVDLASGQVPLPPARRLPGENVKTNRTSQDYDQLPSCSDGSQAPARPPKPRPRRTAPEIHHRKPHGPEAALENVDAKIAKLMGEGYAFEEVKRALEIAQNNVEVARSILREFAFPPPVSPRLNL

Structure (SMILES) | IC50
C[C@H]1CCCN(Cc2cc(C(F)(F)F)c3cn(-c4cccc([C@@H](c5nncn5C)C5COC5)c4)c(=O)n3c2)C1 (single isomer, unassigned) [Compound 134] | 301 to 1000 nM
Cc1conc1[C@@H](c1cccc(-n2cc3c(C(F)(F)F)cc(CN4CCC[C@H](C)C4)cn3c2=O)c1)C1CCC1 (single isomer, unassigned) [Compound 303] | > 10000 nM
COC1(C)CN(Cc2cc(C(F)(F)F)c3cn(-c4cccc([C@H](c5nncn5C)C5CCC5)c4)c(=O)n3c2)C1 [Compound 296] | < 100 nM
CN1CC=C(c2cc(C(F)(F)F)c3cn(-c4cccc(C5(Cc6nncn6C)COC5)c4)c(=O)n3c2)C1 [Compound 78] | < 100 nM
Cc1sc(C#N)nc1[C@@H](c1cccc(-n2cc3c(C(F)(F)F)cc(CN4CCC[C@H](C)C4)cn3c2=O)c1)C1CCC1 (single isomer, unassigned) [Compound 369] | > 10000 nM
Cn1cnnc1C(F)(F)[C@@](C)(F)c1cccc(-n2cc3c(C(F)(F)F)cc(CN4CC[C@H](F)C4)cn3c2=O)c1 [Compound 28] | 100 to 300 nM
CN1CCC(O)(c2cc(C(F)(F)F)c3cn(-c4cccc(C5(Cc6nncn6C)COC5)c4)c(=O)n3c2)CC1 [Compound 182] | 301 to 1000 nM
C[C@@H]1CN([C@@H](C)c2cc(C(F)(F)F)c3cn(-c4cccc([C@@H](c5nncn5C)C5CCC5)c4)c(=O)n3c2)CCO1 (single isomer, unassigned) [Compound 232] | 301 to 1000 nM
C[C@H]1CCCN([C@H](c2cc(C(F)(F)F)c3cn(-c4cccc([C@@H](c5nncn5C)C5CCC5)c4)c(=O)n3c2)C(F)(F)F)C1 (single isomer, unassigned) [Compound 257] | > 10000 nM
Cn1cnnc1CC1(c2cccc(-n3cc4c(C(F)(F)F)cc(CN5CCC6(CC6)C5)cn4c3=O)c2)COC1 [Compound 10] | < 100 nM
Cn1cnnc1[C@]1(c2cccc(-n3cc4c(C(F)(F)F)cc(CN5CC6(CC6)C5)cn4c3=O)c2)C[C@@H](C)C1 [Compound 228] | < 100 nM
COCCN(C)Cc1cc(C(F)(F)F)c2cn(-c3cccc(C4(Cc5nncn5C)COC4)c3)c(=O)n2c1 [Compound 51] | 301 to 1000 nM
Cn1cnnc1CC1(c2cc(C#N)cc(-n3cc4c(C(F)(F)F)cc(Br)cn4c3=O)c2)COC1 [Compound 254] | 1000 to 3000 nM
Cn1cnnc1[C@@H](c1cccc(-n2cc3c(C(F)(F)F)cc(CN4CC(F)(F)C4)cn3c2=O)c1)C1CCC1 [Compound 299] | < 100 nM
C[C@@H](c1cc(C(F)(F)F)c2cn(-c3cccc(C4([C@@H](F)c5nncn5C)COC4)c3)c(=O)n2c1)N1CCC2(CC2)C1 [Compound 56] | < 100 nM
[2H]C([2H])([2H])n1cnnc1C1(c2cccc(-n3cc4c(C(F)(F)F)cc(CN5CCC[C@H](C)C5)cn4c3=O)c2)CC2(CC2)C1 [Compound 102] | < 100 nM
C[C@H]1CCCN([C@@H](c2cc(C(F)(F)F)c3cn(-c4cccc([C@@H](c5nncn5C)C5CCC5)c4)c(=O)n3c2)C(F)(F)F)C1 (single isomer, unassigned) [Compound 256] | > 10000 nM

Structure (SMILES) | IC50
Cn1cnnc1CC1(c2cccc(-n3cc4c(C(F)(F)F)cc(Cl)cn4c3=O)c2)COC1 [Compound 93] | 100 to 300 nM
C[C@H]1CCCN(Cc2cc(C(F)(F)F)c3cn(-c4cccc([C@H](c5nncn5C)C5CCOCC5)c4)c(=O)n3c2)C1 (single isomer, unassigned) [Compound 358] | > 10000 nM
CN(CCO)Cc1cc(C(F)(F)F)c2cn(-c3cccc(C4(Cc5nncn5C)COC4)c3)c(=O)n2c1 [Compound 76] | 100 to 300 nM
Cn1cnnc1CC1(c2cccc(-n3cc4c(C=O)cccn4c3=O)c2)COC1 [Compound 94] | 3000 to 10000 nM
C[C@H]1CCCN(Cc2cc(C(F)(F)F)c3cn(-c4cccc([C@@H](c5nnc[nH]5)C5CCC5)c4)c(=O)n3c2)C1 [Compound 269] | < 100 nM
C[C@H]1CCCN(Cc2cc(C(F)(F)F)c3cn(-c4cccc([C@]5(c6nncs6)C[C@H](C)C5)c4)c(=O)n3c2)C1 (single isomer, unassigned) [Compound 293] | 100 to 300 nM
Cc1cc(-n2cc3c(C(F)(F)F)cc(Br)cn3c2=O)cc(C2(Cc3nncn3C)COC2)c1 [Compound 238] | 1000 to 3000 nM
CC(=O)N(c1cccc(-n2cc3c(C(F)(F)F)cccn3c2=O)c1)c1nncn1C [Compound 208] | > 10000 nM
CC1CN(Cc2cc(C(F)(F)F)c3cn(-c4cccc([C@H](c5nncn5C)C5CCC5)c4)c(=O)n3c2)CCC1(F)F (single isomer, unassigned) [Compound 171] | < 100 nM
CN1CCN(Cc2cc(C(F)(F)F)c3cn(-c4cccc([C@H](c5nncn5C)C5CCC5)c4)c(=O)n3c2)CC1=O [Compound 364_P2] | < 100 nM
Cn1cnnc1[C@]1(c2cccc(-n3cc4c(C(F)(F)F)cc(CN5CC[C@H](F)C5)cn4c3=O)c2)C[C@H](C)C1 (single isomer, unassigned) [Compound 226] | < 100 nM
C[C@H](Cc1nnc[nH]1)c1cccc(-n2cc3c(C(F)(F)F)cccn3c2=O)c1 [Compound 46] | 1000 to 3000 nM
CN(CCO)C(=O)c1cc(C(F)(F)F)c2cn(-c3cccc(C4(Cc5nncn5C)COC4)c3)c(=O)n2c1 [Compound 38] | 301 to 1000 nM
Cn1cnnc1C1(c2cccc(-n3cc4c(C(F)(F)F)cc(CN5CCc6ncsc6C5)cn4c3=O)c2)CC2(CC2)C1 [Compound 307] | < 100 nM
COC[C@@H]1CCCN1Cc1cc(C(F)(F)F)c2cn(-c3cccc([C@@H](c4nncn4C)C4CCC4)c3)c(=O)n2c1 [Compound 382_P1] | < 100 nM
CN1CC(Cc2nncn2C)(c2cccc(-n3cc4c(C(F)(F)F)cccn4c3=O)c2)C1 [Compound 188] | > 10000 nM

Same assay, conditions: second part of Table 2 (head 'Patent Cmpd No / Updated Activity'); same CBL-B TR-FRET IC50 bins A-F; read-out: Updated Activity

Structure (SMILES) | IC50
C[C@H]1CCCN(Cc2cc(C(F)(F)F)c3cn(-c4cc(C#N)cc([C@@H](c5nncn5C)C5COC5)c4)c(=O)n3c2)C1 (single isomer, unassigned) [Compound 556] | < 100 nM
C[C@H]1CCCN(Cc2cc(C(F)(F)F)c3cn(-c4cccc([C@H](c5nncn5C)C5CN(C)C5)c4)c(=O)n3c2)C1 [Compound 470_P1] | > 10000 nM
COC(=O)N1CCC[C@H](c2cc(C(F)(F)F)c3cn(-c4cccc([C@H](c5nncn5C)C5CCC5)c4)c(=O)n3c2)C1 (single isomer, unassigned) [Compound 393] | < 100 nM
C[C@@H]1CN(Cc2cc(C(F)(F)F)c3cn(-c4cc(C#N)cc([C@H](c5nncn5C)C5CCC5)c4)c(=O)n3c2)CCO1 (single isomer, unassigned) [Compound 509] | < 100 nM
C[C@H]1CCCN(Cc2cc(C(F)(F)F)c3cn(-c4cccc([C@H](c5nncn5C)C5CC5)c4)c(=O)n3c2)C1 [Compound 472_P2] | < 100 nM
CCN(Cc1cc(C(F)(F)F)c2cn(-c3cccc([C@H](c4nncn4C)C4CCC4)c3)c(=O)n2c1)S(=O)(=O)CC [Compound 592] | < 100 nM
C[C@H]1CCCN(Cc2cc(C(F)(F)F)c3cn(-c4cccc([C@@H](c5nncn5C5CC5)C5CCC5)c4)c(=O)n3c2)C1 (single isomer, unassigned) [Compound 427] | > 10000 nM
COCC[C@@H](c1cccc(-n2cc3c(C(F)(F)F)cc(CN4CCC[C@H](C)C4)cn3c2=O)c1)c1nncn1C (single isomer, unassigned) [Compound 400] | > 10000 nM
Cn1cnnc1[C@@H](c1cccc(-n2cc3c(C(F)(F)F)cc(CN4CCNS4(=O)=O)cn3c2=O)c1)C1CCC1 [Compound 542] | < 100 nM
CO[C@H]1C[C@](c2cccc(-n3cc4c(C(F)(F)F)cc([C@@H](C)N5CCC(F)CC5)cn4c3=O)c2)(c2nncn2C)C1 (single isomer, unassigned) [Compound 606] | 100 to 300 nM
[2H]C([2H])(c1cc(C(F)(F)F)c2cn(-c3cccc(C4(Cc5nncn5C)COC4)c3)c(=O)n2c1)N1CCC[C@H](C)C1 [Compound 490] | < 100 nM
Cn1cnnc1[C@@H](c1cc(-c2nnnn2C)cc(-n2cc3c(C(F)(F)F)cccn3c2=O)c1)C1CCC1 (single isomer, unassigned) [Compound 532] | > 10000 nM
C[C@H]1CCCN(Cc2cc(C(F)(F)F)c3cn(-c4cccc([C@@H](c5nncn5C)[C@H]5C[C@@](C)(O)C5)c4)c(=O)n3c2)C1 (single isomer, unassigned) [Compound 577] | > 10000 nM
Cc1sc(CO)nc1[C@H](c1cccc(-n2cc3c(C(F)(F)F)cc(CN4CCC[C@H](C)C4)cn3c2=O)c1)C1CCC1 (single isomer, unassigned) [Compound 392] | > 10000 nM
C[C@@H]1CCCN(Cc2cc(C(F)(F)F)c3cn(-c4cccc([C@H](c5nncn5C)C5CCC5)c4)c(=O)n3c2)C1 [Compound 491] | < 100 nM
COC(=O)CN(C)Cc1cc(C(F)(F)F)c2cn(-c3cccc([C@H](c4nncn4C)C4CCC4)c3)c(=O)n2c1 [Compound 521] | < 100 nM
CC(=O)NCc1cc([C@@H](c2nncn2C)C2CCC2)cc(-n2cc3c(C(F)(F)F)cccn3c2=O)c1 (single isomer, unassigned) [Compound 478] | > 10000 nM
C[C@H]1CN(Cc2cc(C(F)(F)F)c3cn(-c4cccc([C@H](c5nncn5C)C5CCC5)c4)c(=O)n3c2)CC[C@@H]1O (single isomer, unassigned) [Compound 588] | < 100 nM
C[C@H]1CCCN(Cc2cc(C(F)(F)F)c3cn(-c4csc([C@@H](c5nncn5C)C5CCC5)c4)c(=O)n3c2)C1 [Compound 550_P1] | < 100 nM
Cn1cnnc1[C@@H](c1cccc(-n2cc3c(C(F)(F)F)cccn3c2=O)c1)C1CCC1 [Compound 401_P2] | > 10000 nM
C[C@H](c1cc(C(F)(F)F)c2cn(-c3cccc([C@H](c4nncn4C)C4CCC4)c3)c(=O)n2c1)N1CCC[C@@H](C(F)(F)F)C1 (single isomer, unassigned) [Compound 613] | < 100 nM
C[C@H]1CCCN(Cc2cc(C(F)(F)F)c3cn(-c4csc([C@H](c5nncn5C)C5CCC5)c4)c(=O)n3c2)C1 [Compound 550_P2] | < 100 nM
C[C@H]1CCCN(Cc2cc(C(F)(F)F)c3cn(-c4cccc(Cc5cccnn5)c4)c(=O)n3c2)C1 [Compound 431] | > 10000 nM
